From ChEMBL document CHEMBL5653631, “A Potent and Selective ULK1 Inhibitor Suppresses Autophagy and Sensitizes Cancer Cells to Nutrient Stress” (iScience, 2018)
One block for each compound: values may come before it.

Tests used:
[1] = target: T1, Tyrosine-protein kinase JAK3 (Homo sapiens) (UniProt P52333); assay: Inhibition of human recombinant JAK3 at 500 nM in presence of ATP by radiometric assay relative to control
T1 sequence (whole entry): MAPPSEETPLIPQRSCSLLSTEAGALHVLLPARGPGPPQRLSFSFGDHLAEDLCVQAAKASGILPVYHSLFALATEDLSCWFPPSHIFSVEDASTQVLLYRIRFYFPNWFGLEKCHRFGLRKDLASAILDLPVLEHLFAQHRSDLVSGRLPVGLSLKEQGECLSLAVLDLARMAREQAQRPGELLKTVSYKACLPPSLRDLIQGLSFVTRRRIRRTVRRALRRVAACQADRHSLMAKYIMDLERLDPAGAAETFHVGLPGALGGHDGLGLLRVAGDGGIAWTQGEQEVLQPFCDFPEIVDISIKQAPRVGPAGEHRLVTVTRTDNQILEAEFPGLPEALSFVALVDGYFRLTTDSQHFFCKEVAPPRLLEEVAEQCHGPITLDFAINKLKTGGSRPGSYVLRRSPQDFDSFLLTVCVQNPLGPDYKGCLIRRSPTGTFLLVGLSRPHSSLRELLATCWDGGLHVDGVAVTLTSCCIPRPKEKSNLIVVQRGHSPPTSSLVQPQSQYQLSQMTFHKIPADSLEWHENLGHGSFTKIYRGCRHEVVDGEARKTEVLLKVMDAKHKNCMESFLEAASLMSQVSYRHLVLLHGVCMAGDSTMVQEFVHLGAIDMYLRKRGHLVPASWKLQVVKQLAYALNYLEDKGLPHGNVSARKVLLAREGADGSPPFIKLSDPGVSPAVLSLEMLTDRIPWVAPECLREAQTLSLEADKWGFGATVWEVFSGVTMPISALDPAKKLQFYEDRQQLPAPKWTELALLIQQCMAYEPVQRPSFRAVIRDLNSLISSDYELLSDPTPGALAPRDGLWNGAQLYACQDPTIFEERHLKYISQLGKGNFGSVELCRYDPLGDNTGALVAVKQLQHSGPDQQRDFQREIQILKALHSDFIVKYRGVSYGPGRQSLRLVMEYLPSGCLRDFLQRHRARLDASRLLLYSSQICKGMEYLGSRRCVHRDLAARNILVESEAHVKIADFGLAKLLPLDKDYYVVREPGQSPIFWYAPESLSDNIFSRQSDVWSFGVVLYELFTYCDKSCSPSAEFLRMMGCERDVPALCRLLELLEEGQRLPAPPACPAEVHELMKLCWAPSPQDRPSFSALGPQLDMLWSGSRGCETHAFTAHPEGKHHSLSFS

[2] = target: Serine/threonine-protein kinase PAK 3 (Homo sapiens) (UniProt O75914); assay: Inhibition of human recombinant PAK3 at 500 nM in presence of ATP by radiometric assay relative to control
[3] = target: T2, Receptor-interacting serine/threonine-protein kinase 1 (Homo sapiens) (UniProt Q13546); assay: Inhibition of human recombinant RIPK1 at 500 nM in presence of ATP by radiometric assay relative to control
T2 sequence (whole entry): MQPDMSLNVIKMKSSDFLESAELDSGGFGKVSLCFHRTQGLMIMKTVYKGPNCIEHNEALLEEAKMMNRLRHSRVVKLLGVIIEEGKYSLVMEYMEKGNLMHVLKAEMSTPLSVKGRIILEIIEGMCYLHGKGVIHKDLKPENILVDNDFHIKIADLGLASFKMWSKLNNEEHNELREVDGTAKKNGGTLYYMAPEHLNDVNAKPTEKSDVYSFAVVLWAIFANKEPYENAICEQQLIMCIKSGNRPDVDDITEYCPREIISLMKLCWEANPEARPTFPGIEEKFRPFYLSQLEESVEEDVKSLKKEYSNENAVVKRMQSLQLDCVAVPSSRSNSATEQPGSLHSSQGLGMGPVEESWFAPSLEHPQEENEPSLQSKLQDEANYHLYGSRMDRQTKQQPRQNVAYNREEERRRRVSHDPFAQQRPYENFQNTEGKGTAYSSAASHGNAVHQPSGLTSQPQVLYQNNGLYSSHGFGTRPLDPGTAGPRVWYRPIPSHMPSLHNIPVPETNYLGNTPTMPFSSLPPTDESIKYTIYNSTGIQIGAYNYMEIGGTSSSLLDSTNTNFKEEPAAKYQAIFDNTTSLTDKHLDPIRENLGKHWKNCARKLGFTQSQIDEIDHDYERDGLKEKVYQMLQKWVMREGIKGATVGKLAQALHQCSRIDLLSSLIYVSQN

[4] = target: Serine/threonine-protein kinase N2 (Homo sapiens) (UniProt Q16513); assay: Inhibition of human recombinant PKN2 at 500 nM related to control ULK1
[5] = target: Cyclin-dependent kinase 3 (Homo sapiens) (UniProt Q00526); assay: Inhibition of human recombinant CDK3 at 15 nM in presence of ATP by radiometric assay relative to control
[6] = target: Interleukin-1 receptor-associated kinase 1 (Homo sapiens) (UniProt P51617); assay: Inhibition of human recombinant IRAK1 at 15 nM related to control ULK1
[7] = target: T3, Serine/threonine-protein kinase Sgk3 (Homo sapiens) (UniProt Q96BR1); assay: Inhibition of human recombinant SGK3 at 15 nM related to control ULK1
T3 sequence (whole entry): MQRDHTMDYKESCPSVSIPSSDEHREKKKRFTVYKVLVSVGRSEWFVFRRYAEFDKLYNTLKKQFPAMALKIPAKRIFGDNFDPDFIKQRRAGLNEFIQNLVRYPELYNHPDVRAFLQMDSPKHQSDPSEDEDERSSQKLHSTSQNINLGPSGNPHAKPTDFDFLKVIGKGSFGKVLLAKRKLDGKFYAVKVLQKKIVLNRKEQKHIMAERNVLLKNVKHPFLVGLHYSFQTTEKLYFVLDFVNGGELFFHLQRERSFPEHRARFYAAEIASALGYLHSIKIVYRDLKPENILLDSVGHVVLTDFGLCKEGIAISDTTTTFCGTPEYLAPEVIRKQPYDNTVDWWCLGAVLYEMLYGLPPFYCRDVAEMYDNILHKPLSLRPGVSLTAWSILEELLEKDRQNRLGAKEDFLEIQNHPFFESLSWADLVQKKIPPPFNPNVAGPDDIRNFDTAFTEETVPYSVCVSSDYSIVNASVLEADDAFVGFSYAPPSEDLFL

[8] = target: Dual specificity tyrosine-phosphorylation-regulated kinase 1B (Homo sapiens) (UniProt Q9Y463); assay: Inhibition of human recombinant DYRK1B at 40 nM in presence of ATP by radiometric assay relative to control
Chain of Dual specificity tyrosine-phosphorylation-regulated kinase 1B (Homo sapiens) (Q9Y463 whole entry, looked up): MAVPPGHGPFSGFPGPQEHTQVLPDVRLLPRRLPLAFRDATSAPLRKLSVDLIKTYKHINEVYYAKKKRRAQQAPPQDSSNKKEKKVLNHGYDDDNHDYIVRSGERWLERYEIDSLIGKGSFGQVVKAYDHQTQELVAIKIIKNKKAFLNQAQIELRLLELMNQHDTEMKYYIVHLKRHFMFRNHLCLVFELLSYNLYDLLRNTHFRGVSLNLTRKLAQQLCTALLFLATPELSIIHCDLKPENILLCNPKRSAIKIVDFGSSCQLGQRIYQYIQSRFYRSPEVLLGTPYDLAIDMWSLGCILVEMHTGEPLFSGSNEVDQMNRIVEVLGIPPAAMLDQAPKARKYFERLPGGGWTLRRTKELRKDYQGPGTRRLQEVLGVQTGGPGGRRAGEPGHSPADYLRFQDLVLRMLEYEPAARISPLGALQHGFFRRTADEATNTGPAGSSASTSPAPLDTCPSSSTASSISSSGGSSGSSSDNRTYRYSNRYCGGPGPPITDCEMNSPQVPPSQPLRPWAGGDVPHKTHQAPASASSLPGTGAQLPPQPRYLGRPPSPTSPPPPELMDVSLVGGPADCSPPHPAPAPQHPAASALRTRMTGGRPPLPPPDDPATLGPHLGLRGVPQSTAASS

Chain of Interleukin-1 receptor-associated kinase 1 (Homo sapiens) (P51617 whole entry, looked up): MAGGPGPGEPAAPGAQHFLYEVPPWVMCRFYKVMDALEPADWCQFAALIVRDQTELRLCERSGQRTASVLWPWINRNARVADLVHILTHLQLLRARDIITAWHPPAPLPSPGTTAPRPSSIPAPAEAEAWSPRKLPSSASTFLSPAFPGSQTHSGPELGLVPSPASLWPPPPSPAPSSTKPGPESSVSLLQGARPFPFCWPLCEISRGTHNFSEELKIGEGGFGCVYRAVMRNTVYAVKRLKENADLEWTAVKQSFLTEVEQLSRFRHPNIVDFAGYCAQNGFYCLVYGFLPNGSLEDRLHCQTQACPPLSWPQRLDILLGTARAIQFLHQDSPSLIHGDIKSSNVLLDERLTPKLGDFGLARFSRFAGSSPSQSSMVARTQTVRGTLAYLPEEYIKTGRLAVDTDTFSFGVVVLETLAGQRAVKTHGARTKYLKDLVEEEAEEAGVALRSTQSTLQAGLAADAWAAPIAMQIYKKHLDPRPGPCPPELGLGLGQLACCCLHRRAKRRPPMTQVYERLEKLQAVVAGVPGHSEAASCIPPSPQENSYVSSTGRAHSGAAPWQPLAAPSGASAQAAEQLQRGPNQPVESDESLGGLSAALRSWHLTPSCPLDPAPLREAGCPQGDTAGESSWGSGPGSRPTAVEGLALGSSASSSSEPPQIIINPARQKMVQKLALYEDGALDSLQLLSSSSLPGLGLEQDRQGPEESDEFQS
Chain of Serine/threonine-protein kinase N2 (Homo sapiens) (Q16513 whole entry, looked up): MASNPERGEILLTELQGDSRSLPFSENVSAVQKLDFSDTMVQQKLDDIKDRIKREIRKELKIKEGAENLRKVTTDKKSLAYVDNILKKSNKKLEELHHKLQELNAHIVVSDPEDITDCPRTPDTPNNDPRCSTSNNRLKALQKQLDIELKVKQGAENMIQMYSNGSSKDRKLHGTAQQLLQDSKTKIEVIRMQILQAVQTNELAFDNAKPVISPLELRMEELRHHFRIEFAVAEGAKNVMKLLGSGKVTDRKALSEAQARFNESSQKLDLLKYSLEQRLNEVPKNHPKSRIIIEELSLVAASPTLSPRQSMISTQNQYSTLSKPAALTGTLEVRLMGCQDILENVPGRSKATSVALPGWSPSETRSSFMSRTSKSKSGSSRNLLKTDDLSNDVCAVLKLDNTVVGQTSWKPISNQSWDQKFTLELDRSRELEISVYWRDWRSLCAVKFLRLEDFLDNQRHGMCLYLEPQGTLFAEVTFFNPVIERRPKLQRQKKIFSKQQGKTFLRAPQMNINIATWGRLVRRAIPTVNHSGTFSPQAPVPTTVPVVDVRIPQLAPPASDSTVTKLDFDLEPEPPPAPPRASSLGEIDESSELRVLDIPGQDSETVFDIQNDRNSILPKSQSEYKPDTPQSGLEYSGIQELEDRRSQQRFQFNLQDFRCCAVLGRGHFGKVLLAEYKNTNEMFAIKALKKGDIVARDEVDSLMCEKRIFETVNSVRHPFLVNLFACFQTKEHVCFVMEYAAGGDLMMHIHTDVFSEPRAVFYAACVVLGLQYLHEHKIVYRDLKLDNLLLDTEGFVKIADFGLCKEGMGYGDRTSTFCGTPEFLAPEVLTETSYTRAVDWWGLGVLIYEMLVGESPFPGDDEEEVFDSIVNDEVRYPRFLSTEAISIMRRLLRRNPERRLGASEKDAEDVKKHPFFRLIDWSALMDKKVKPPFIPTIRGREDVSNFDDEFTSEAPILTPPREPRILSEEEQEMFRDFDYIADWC
Chain of Cyclin-dependent kinase 3 (Homo sapiens) (Q00526 whole entry, looked up): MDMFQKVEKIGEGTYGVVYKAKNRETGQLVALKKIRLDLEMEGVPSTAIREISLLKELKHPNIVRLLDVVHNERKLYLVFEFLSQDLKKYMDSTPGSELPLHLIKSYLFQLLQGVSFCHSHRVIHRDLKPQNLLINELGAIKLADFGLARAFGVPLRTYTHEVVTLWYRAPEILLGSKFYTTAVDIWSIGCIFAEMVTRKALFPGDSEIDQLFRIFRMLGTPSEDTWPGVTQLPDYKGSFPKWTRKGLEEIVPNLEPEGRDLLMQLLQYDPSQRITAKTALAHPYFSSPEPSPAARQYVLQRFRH
Chain of Serine/threonine-protein kinase PAK 3 (Homo sapiens) (O75914 whole entry, looked up): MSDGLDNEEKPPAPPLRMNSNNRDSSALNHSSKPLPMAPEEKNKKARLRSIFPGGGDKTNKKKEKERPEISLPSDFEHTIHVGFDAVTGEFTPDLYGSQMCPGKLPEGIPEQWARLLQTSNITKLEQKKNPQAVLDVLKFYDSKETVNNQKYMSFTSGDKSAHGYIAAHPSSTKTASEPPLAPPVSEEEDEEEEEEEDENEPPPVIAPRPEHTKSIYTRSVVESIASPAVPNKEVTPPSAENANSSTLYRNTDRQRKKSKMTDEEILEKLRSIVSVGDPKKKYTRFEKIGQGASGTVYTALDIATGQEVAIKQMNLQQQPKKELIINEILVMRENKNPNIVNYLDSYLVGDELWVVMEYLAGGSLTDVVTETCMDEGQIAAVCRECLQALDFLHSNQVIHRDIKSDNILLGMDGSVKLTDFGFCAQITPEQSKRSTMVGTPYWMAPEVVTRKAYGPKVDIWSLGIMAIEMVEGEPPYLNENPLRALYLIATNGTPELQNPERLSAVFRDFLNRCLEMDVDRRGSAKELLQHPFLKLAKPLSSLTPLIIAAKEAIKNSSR

- inhibition [1]: 21%
- inhibition [2]: 9%
- inhibition [3]: 7%
- fold change (FC) [4]: 0
Compound: CNC(=O)c1ccccc1Oc1nc(Nc2cc(OC)c(OC)c(OC)c2)ncc1Br

- inhibition [5]: 5%
- fold change (FC) [6]: 0.41
- fold change (FC) [7]: 0.05
Compound: CC(C)[C@H](NC(=O)c1cc(-c2cnn3cc(-c4ccc(OCCN5CCCCC5)cc4)cnc23)cs1)C(F)(F)F

- inhibition [8]: 31%
Compound: O=C(N[C@@H](C1CC1)C(F)(F)F)c1cc(-c2cnn3cc(-c4ccc(F)cc4)cnc23)cs1
